Experimental data published in patent US5248668A, “Use of purpurogallin and glycosides thereof in treating ischemia in mammals” (Wintek Consulting Ltd., priority 1992, dated 1993).

Legend:
rat hepatocytes [1] = assay: survival of rat hepatocytes after exposure to oxyradical (Table I); assay type: cell-based; details: for Mean Survival Time of 10^5 Rat Hepatocytes After Exposure to Oxyradical: control about 6.5 minutes
Source text: In further studies, culturing the rat hepatocytes and testing for oxyradical damage using purpurogallin and Trolox additives according to the procedure of Wu et al. op. cit., and Clin. Chem. 36: 1172-1173 (abstract), 1990, the results given below in Table I were obtained.

[2] = system: Human ventricular myocytes; assay: survival of ventricular myocytes after exposure to oxyradical (Table II); assay type: cell-based; details: for Mean survival time of human ventricular myocytes after exposure to oxyradical: control 2 minutes, mean of 5-7 replicates
Source text: Human ventricular myocytes were isolated and tested with purpurogallin and Trolox for protection against oxyradical damage using the methods and procedures described by Wu et al., op cit.
Each result reported in Table II is the mean of 5-7 closely agreeing replicates.

human erythrocytes = assay: protection of human erythrocytes from AAPH-induced lysis; assay type: cell-based; details: for IC50: Homo sapiens, Erythrocyte, 3 h, 100 mM AAPH, 10% RBC suspension, 37° C., 180 min, read-out: concentration of the agent that elicits 50% inhibition of cells lysis (IC50)
Experimental: In this example, experiments were conducted with human erythrocytes, subjecting them to free radicals generated by thermal activation of AAPH in a reaction mixture in the absence and in the presence of various amounts of purpurogallin or Trolox, to determine the cytoprotective capability of purpurogallin under these conditions.
Freshly obtained human erythrocytes were washed at least three times in saline with centrifugation at 1500 g×10 min. Then, a 20% suspension of RBC was prepared in the phosphate buffered saline (pH 7.4). (Miki et al., Arch. Biochem. Biophys. 258: 373-380, 1987).
The free radicals were generated by thermal activation of the azo-initiator2,2'-azo-bis(2-amidinopropane)HCl(AAPH). The reaction mixture (0.5 mL volumes) contained 10% red blood cell (RBC) suspension, AAPH (100 mM final level) and various levels of purpurogallin in 10 mM phosphate buffered saline. The above mixture was incubated at 37° C. for 180 min, while shaking gently. The, 35 μl aliquot of reaction mixture was taken out, diluted in 1.5 mL of saline, and centrifuged (1500 g for 10 min). The absorption of the supernatant at […] was read against a PBA blank. Similarly, the reaction mixture was treated with 1.5 mL of distilled water with sonication for 2 min to obtain complete hemolysis. Percent hemolysis was calculated according to Miki et al. (op. cit.).

[3] = system: Rat kidney mesangial cells; assay: survival of rat kidney mesangial cells exposed to XOD and hypoxanthine (Table III); assay type: cell-based; details: for Mean Time Survival of Cells Exposed to XOD and Hypoxanthine: XOD 66.7 IU/L, hypoxanthine 0.5 mM, control 5.7
Source text: Rat kidney mesangial cells were isolated and tested with purpurogallin versus Trolox over the same range of concentrations, for protection against oxyradical damage using methods and procedures described by Wu et al., op cit. […]

rat livers = assay: partial hepatic ischemia-reperfusion in vivo; design: species or system Sprague-Dawley rats; details: for Mean Necrosis (% by weight): infused via penile vein, 24 h reperfusion, saline control 30.3, n=6
Experimental: In vivo studies were conducted on rat livers, to determine the effectiveness of purpurogallin as a cytoprotectant in partial hepatic ischemia-reperfusion.
There was used the same model as described in Wu et al. Hepatology 13: 575-580, (1991). In essence, the model involves the occlusion of blood vessels supplying to the left lateral, median, and Spigelian lobes of the rate liver by clamping the left portal vein, left hepatic artery and left bile duct. The right portal vein, hepatic artery and bile duct were left intact as an interal shunt. The occlusion was done in Sprague-Dawley rats (0.3-0.4 kg) which had fasted overnight. Approximately […] before the end of ischemia, either 3 mL of saline (control) or saline containing purpurogallin or Trolox (at the levels specified below) was infused into the animals via the penile vein over a 3 minute period. This was followed by reperfusion for 24 hours. Then, the extent of necrosis (based on wet weight of the liver) was quantified by a well established histochemical method (Frederiks et al., Exptl. Mol. Path 41: 119-125, 1984).

rat hepatocytes [4] = assay: time to necrose rat hepatocytes exposed to xanthine oxidase/hypoxanthine oxyradicals (FIG. 2); assay type: cell-based, rat (male Sprague-Dawley); details: 3 mM; XOD 66.7 IU/L, 2 mM hypoxanthine; control approximately 6 min
Experimental: In this example, experiments were conducted with rat hepatocytes, subjecting them to the action of free radicals in the presence and absence of purpurogallin, at various levels.
Hepatocytes were prepared from male Sprague-Dawley rats (400 g-450 g) according the method of Princen et al. J. Clin. Invest. 78: 1064-1071 (1986), except that the perfusion of the liver was done first with 250 mL of 0.5 mM EGTA and 10 MM HEPES buffer solution (pH 7.4) containing 142 mM NaCl and 6.7 mM KCL via gravity drip at 20 mL/min., then with 100 mL of magnesium-free Hank's Balanced Salt Solution containing 5 mM CaCl2 and 0.05% collagenase according to Seglen, Exp. Cell. Res. 82: 391-398 (1973). All other details were as described previously (Wu et al., Biochem. Cell Biol. 68, 1189-1194, 1990).
Free radical studies were done by removing the cell medium and adding to the cells 3 mL of 0.05M sodium phosphate-buffered saline (PBS) (pH 7.4) containing 66.7 IU/L of xanthine oxidase (XOD) and 2 mM hypoxanthine, the latter two being used to generate oxyradicals. The base for comparing the effect of different levels of purpurogallin was the time taken to cause necrosis in 95% of 10^5 cells of the same generation in each culture dish. […]
The results are shown graphically in FIG. 2. […] The data are expressed as means±SD (standard deviation). […]

heart = heart ischemia-reperfusion in vivo; design: species or system New Zealand white rabbits
Experimental: In this example, the cytoprotective effect of purpurogallin in vivo, in heart ischemia-reperfusion in rabbits was examined.
New Zealand white rabbits (3.0-3.5 kg by weight) were anaesthetized with intramuscular injection of Ketamine (35 mg/kg) and Atravet (0.4 mg/kg), and intravenous injection of atropine (0.1 mg/kg).
After shaving the frontal area of the animal, anaesthesia was maintained by performing tracheotomy and ventilating the animal with positive pressure respiration using a Harvard small animal respirator and a gas mixture of 2.5% ethrane (or enflurane) in oxygen. A midline sternotomy was done. The pericardium was opened and the heart was exposed. The main branch of the anterior ventricular coronary artery that supplies blood to a great part of the left ventricle and apex in rabbits (also referred to as the left circumflex coronary artery) was temporarily ligated with a 5-0 silk thread for 1 hour at the site between 1/2 to 2/3 from apex to the atrioventricular groove. Approximately 1 minute before releasing the occlusion, a 30-ml bolus of 1 mM test solution was injected through the right external jugular vein. In control animals, a 30-mL bolus of normal saline was given instead of the test solution. […] After this period, the heart was harvested, stained for enzyme activity with a tetrazolium dye and the areas of necrosis determined by planimetry. […]

water solubility = assay type: physicochemical; details: 4 mM prepared in PBS with brief sonication, pH adjusted to 7.40±0.05

## Cc1c(C)c2c(c(C)c1O)CCC(C)(C(=O)O)O2 (centres unmarked) [Trolox, 6-hydroxy-2,5,7,8-tetramethylchroman-2-carboxylic acid, reference compound]
Rat hepatocytes [1]; 0.5 mM
  Mean Survival Time of 10^5 Rat Hepatocytes After Exposure to Oxyradical: 12 min
Rat hepatocytes [1]; 1.0 mM
  Mean Survival Time of 10^5 Rat Hepatocytes After Exposure to Oxyradical: 13 min
Rat hepatocytes [1]; 2.0 mM
  Mean Survival Time of 10^5 Rat Hepatocytes After Exposure to Oxyradical: 16 min
[2]; 0.5 mM
  Mean survival time of human ventricular myocytes after exposure to oxyradical: 3.5 min
[2]; 1.0 mM
  Mean survival time of human ventricular myocytes after exposure to oxyradical: 4.5 min
[2]; 1.5 mM
  Mean survival time of human ventricular myocytes after exposure to oxyradical: 4.8 min
[2]; 3.0 mM
  Mean survival time of human ventricular myocytes after exposure to oxyradical: 5.3 min
Human erythrocytes
  IC50: ~740 µM
[3]; 0.13 mM
  Mean Time Survival of Cells Exposed to XOD and Hypoxanthine: 6.4 min
[3]; 0.25 mM
  Mean Time Survival of Cells Exposed to XOD and Hypoxanthine: 6.6 min
[3]; 0.50 mM
  Mean Time Survival of Cells Exposed to XOD and Hypoxanthine: 7.4 min
[3]; 1.00 mM
  Mean Time Survival of Cells Exposed to XOD and Hypoxanthine: 7.8 min

## O=c1c(O)cccc2cc(O)c(O)c(O)c12 [Purpurogallin, 2,3,4,6-tetrahydroxy-5H-benzocyclohepten5-one]
Rat hepatocytes [1]; 0.5 mM
  Mean Survival Time of 10^5 Rat Hepatocytes After Exposure to Oxyradical: 18 min
Rat hepatocytes [1]; 1.0 mM
  Mean Survival Time of 10^5 Rat Hepatocytes After Exposure to Oxyradical: 20 min
Rat hepatocytes [1]; 2.0 mM
  Mean Survival Time of 10^5 Rat Hepatocytes After Exposure to Oxyradical: 31 min
Rat hepatocytes [1]; at equivalent concentrations
  protection of rat hepatocytes compared with Trolox: clearly more protective of rat hepatocytes than Trolox
[2]; 0.5 mM
  Mean survival time of human ventricular myocytes after exposure to oxyradical: 14 min
[2]; 1.0 mM
  Mean survival time of human ventricular myocytes after exposure to oxyradical: > 60 min
[2]; 1.5 mM
  Mean survival time of human ventricular myocytes after exposure to oxyradical: > 60 min
[2]; 3.0 mM
  Mean survival time of human ventricular myocytes after exposure to oxyradical: > 60 min
[2]; especially at levels greater than 0.5 mM
  protection of myocytes compared with Trolox: at least an order of magnitude more protective of myocytes than Trolox
Rat livers; 4.4 μmoles/kg body weight, SD 4.6
  Mean Necrosis (% by weight): 17.7 % by weight
Rat livers; 4.4 μmoles/kg body weight, p value vs control <0.05
  % Salvage of Liver: 42%
Rat livers; 8.8 μmoles/kg body weight, SD 4.9
  Mean Necrosis (% by weight): 7.3 % by weight
Rat livers; 8.8 μmoles/kg body weight, p value vs control 0.005
  % Salvage of Liver: 76%
Rat livers; 18 μmoles/kg body weight, SD 1.1
  Mean Necrosis (% by weight): 4.4 % by weight
Rat livers; 18 μmoles/kg body weight, p value vs control 0.001
  % Salvage of Liver: 86%
Rat hepatocytes [4]
  time taken to necrose 100,000 hepatocytes: up to 30 min
Human erythrocytes
  IC50: 120 µM
Human erythrocytes; versus Trolox
  effectiveness versus Trolox in protecting cells from lysis (from IC50): six
heart; 8.6-10 μmoles/kg body weight (30-ml bolus of 1 mM), right external jugular vein, 3-hour reperfusion, saline control 46.6 ± 10, p <0.001
  Mean % (± SD) organ necrosis in area at risk: 11.8 ± 6.2%
heart; 8.6-10 μmoles/kg body weight, p <0.001 vs control
  Mean & organ salvage: 75%
[3]; 0.13 mM
  Mean Time Survival of Cells Exposed to XOD and Hypoxanthine: 11.5 min
[3]; 0.25 mM
  Mean Time Survival of Cells Exposed to XOD and Hypoxanthine: 13.4 min
[3]; 0.50 mM
  Mean Time Survival of Cells Exposed to XOD and Hypoxanthine: 16.0 min
[3]; 1.00 mM
  Mean Time Survival of Cells Exposed to XOD and Hypoxanthine: 19.4 min
[3]; over all the levels examined
  protection of kidney cells compared with Trolox: protects the kidney cells substantially better than Trolox
Water solubility
  water solubility: partly water-soluble
